# Experimental data reported in ChEMBL document CHEMBL6153118, “Structure Optimization of Natural Product Catalpol to Obtain Novel and Potent Analogs against Heart Failure” (J Med Chem, 2025).
# Active and inactive are the calls of the source. The rule behind the calls is not given here.
# Experiments:
# [1] = system: H9c2; assay: Cytoprotective activity against OGD-induced myocardial ischemic injury in rat H9c2 cells assessed as cell viability at 5 uM preincubated for 12 hrs followed by exposure to OGD condition for 3 hrs by CCK8 assay (reference value: 49.23 to 50.05 %); assay type: functional; conditions: time 15 hrs, read-out: Activity
# [2] = system: H9c2; assay: Cytoprotective activity against OGD-induced myocardial ischemic injury in rat H9c2 cells assessed as decrease in LDH level at 5 to 50 uM preincubated for 12 hrs followed by exposure to OGD condition for 3 hrs by UV absorption analysis; assay type: functional, cell-based; conditions: dose 5-50 µM, time 15.0 hrs
# [3] = system: H9c2; assay: Cytoprotective activity against OGD-induced myocardial ischemic injury in rat H9c2 cells assessed as decrease in ROS level at 5 to 50 uM preincubated for 12 hrs followed by exposure to OGD condition for 3 hrs by DCFH-DA probe based analysis; assay type: functional, cell-based; conditions: dose 5-50 µM, time 15.0 hrs
# [4] = system: Mus musculus; assay: Improvement in motor ability in ISO-induced heart failure C57BL/6J mouse assessed as increase in grip strength at 5 to 20 mg/kg/day, po for 14 days; assay type: functional, organism-based; conditions: dose 5-20 mg/kg/day, time 14.0 day
# [5] = system: Mus musculus; assay: Inhibition of cardiomyocyte hypertrophy in ISO-induced heart failure C57BL/6J mouse at 5 to 20 mg/kg/day, po for 14 days; assay type: functional, organism-based; conditions: dose 5-20 mg/kg/day, time 14.0 day
# [6] = system: Mus musculus; assay: Inhibition of cardiac fibrosis in ISO-induced heart failure C57BL/6J mouse at 5 to 20 mg/kg/day, po for 14 days; assay type: functional, organism-based; conditions: dose 5-20 mg/kg/day, time 14.0 day
# [7] = system: H9c2; assay: Inhibition of apoptosis in ISO-treated rat H9c2 cells assessed as increase in Bcl-2 level by Western blot analysis; assay type: functional, cell-based; conditions: dose 5-50 µM
# [8] = system: Mus musculus; assay: Inhibition of cardiomyocyte hypertrophy in ISO-induced heart failure C57BL/6J mouse assessed as decrease in PI3K phosphorylation in heart tissue administered orally daily for 14 days by Western blot analysis; assay type: functional, organism-based; conditions: dose 5-20 mg/kg/day, route po, time 14.0 day
# [9] = system: Mus musculus; assay: Inhibition of cardiomyocyte hypertrophy in ISO-induced heart failure C57BL/6J mouse assessed as decrease in GSK-3beta phosphorylation in heart tissue administered orally daily for 14 days by Western blot analysis; assay type: functional, organism-based; conditions: dose 5-20 mg/kg/day, route po, time 14.0 day
# [10] = system: Mus musculus; assay: Inhibition of cardiomyocyte hypertrophy in ISO-induced heart failure C57BL/6J mouse assessed as decrease in ratio of p-AKT to AKT levels in heart tissue administered orally daily for 14 days by Western blot analysis; assay type: functional, organism-based; conditions: dose 5-20 mg/kg/day, route po, time 14.0 day
# [11] = Metabolic stability in human liver microsomes assessed as intrinsic clearance measured for 5 to 60 mins in presence of NADPH by LC-MS/MS analysis; assay type: ADME, Microsome; conditions: time 5-60 min, read-out: CLH
# [12] = biological target: T1, CYP1A2 (Homo sapiens, UniProt P05177); assay: Inhibition of CYP1A2 in human liver microsomes preincubated for 10 mins followed by NADPH addition measured after 10 mins by LC/MS/MS analysis relative to control; assay type: ADME, Microsome; conditions: time 20 min
# T1 sequence (P05177 whole entry): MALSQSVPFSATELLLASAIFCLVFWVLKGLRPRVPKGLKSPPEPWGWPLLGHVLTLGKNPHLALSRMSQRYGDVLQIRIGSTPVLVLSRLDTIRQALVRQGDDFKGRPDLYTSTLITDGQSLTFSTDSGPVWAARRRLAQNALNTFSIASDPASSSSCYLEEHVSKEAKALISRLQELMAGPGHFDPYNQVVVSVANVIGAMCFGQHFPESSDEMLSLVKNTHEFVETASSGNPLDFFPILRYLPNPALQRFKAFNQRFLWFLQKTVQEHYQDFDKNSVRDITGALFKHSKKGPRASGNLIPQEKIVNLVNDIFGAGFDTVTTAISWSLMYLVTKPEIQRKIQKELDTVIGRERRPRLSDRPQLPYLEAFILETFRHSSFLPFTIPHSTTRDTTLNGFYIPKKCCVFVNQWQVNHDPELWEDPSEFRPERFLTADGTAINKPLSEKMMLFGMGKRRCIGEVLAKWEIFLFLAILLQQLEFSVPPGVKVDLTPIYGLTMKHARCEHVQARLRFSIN
# [13] = biological target: CYP2C9 (Homo sapiens, UniProt P11712); assay: Inhibition of CYP2C9 in human liver microsomes preincubated for 10 mins followed by NADPH addition measured after 10 mins by LC/MS/MS analysis relative to control; assay type: ADME, Microsome; conditions: time 20 min
# Chain of CYP2C9 (P11712 whole entry): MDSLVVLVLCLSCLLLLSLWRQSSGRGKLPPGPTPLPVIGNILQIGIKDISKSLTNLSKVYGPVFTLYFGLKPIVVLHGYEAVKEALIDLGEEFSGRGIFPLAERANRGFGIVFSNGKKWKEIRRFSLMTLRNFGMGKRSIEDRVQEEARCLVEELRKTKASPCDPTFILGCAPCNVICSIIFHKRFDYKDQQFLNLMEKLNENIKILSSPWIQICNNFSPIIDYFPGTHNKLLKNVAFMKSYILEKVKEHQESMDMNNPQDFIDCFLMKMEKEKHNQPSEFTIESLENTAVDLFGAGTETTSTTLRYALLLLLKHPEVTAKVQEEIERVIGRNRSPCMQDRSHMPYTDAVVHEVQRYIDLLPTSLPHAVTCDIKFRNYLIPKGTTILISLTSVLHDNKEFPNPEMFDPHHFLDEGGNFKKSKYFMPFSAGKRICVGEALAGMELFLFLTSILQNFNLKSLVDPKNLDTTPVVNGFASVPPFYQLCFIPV
# [14] = Tmax in C57/6J mouse at 5 mg/kg, iv measured for 24 hrs; assay type: ADME, organism-based; conditions: in vivo
# [15] = Half life in C57/6J mouse at 5 mg/kg, iv measured for 24 hrs; assay type: ADME, organism-based; conditions: in vivo
# [16] = Cmax in C57/6J mouse at 20 mg/kg, po measured for 24 hrs; assay type: ADME, organism-based; conditions: in vivo
# [17] = MRT (0 to t) in C57/6J mouse at 20 mg/kg, po measured for 24 hrs; assay type: ADME, organism-based; conditions: in vivo
# [18] = Oral bioavailability in C57/6J mouse at 20 mg/kg measured for 24 hrs; assay type: ADME, organism-based; conditions: in vivo
structure (smiles),measurement,setting,value
OC[C@H]1O[C@@H](O[C@@H]2OC=C[C@H]3[C@H](O)[C@@H]4O[C@]4(COc4ccc(C(F)(F)F)cc4)[C@@H]23)[C@H](O)[C@@H](O)[C@@H]1O,viability at 5 µM,[1],64.6%
same,Activity,[2],Active
same,Activity,[3],Active
same,Activity,[4],Active
same,inhibition,[5],Active; Exhibited Pronounced Therapeutic Effect Compared To Catal-Pol
same,inhibition,[6],Active
same,inhibition,[7],Dose-dependent-effect
same,inhibition,[8],Dose-dependent-effect
same,inhibition,[9],Dose-dependent-effect
same,inhibition,[10],Dose-dependent-effect
same,CLint scaled,[11],< 8.6 mL/min/kg
same,inhibition at 10 min,[12],8%
same,inhibition at 10 min,[13],6.3%
same,Tmax,[14],4.98 min
same,half-life,[15],57 min
same,Cmax,[16],505 ng/mL
same,MRT last at 24 h,[17],146 min
same,bioavailability,[18],41.8%
